Data on two compounds can be found in patent US20060257987A1, “Ppar modulators” (priority 2003, published 2006).

In test [1] the target is T1, huPPARδ (Homo sapiens, UniProt Q03181).
T1 sequence (Q03181 211-441 limits assumed): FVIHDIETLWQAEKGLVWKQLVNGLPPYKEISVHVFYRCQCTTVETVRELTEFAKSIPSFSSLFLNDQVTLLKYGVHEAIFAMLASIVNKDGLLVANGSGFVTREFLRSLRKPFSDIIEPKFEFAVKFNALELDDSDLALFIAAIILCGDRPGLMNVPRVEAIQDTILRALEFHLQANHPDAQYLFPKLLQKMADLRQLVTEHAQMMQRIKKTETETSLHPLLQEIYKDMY
Description: Cotransfection assay in CV-1 cells, GAL4 chimeric system, luciferase reporter.
Description: (§1) Cotransfection assays are carried out in CV-1 cells. The reporter plasmid contains an acylCoA oxidase (AOX) PPRE and TK promoter upstream of the luciferase reporter cDNA. Appropriate PPARs and RXRα are constitutively expressed using plasmids containing the CMV promoter. Since for PPARα and PPARβ, interference by endogenous PPARγ in CV-1 cells is an issue, in order to eliminate such interference, a GAL4 chimeric system is used in which the DNA binding domain of the transfected PPAR is replaced by that of GAL4, and the GAL4 response element is utilized in place of the AOX PPRE. Receptor activation by compounds of the present invention is determined relative to PPARα agonist and PPARγ agonist reference molecules to obtain percent efficacies. EC50 values are determined by computer fit to a concentration-response curve. […] In some cases, a single high concentration of agonist (10 μM) was used.

In test [2] the target is T2, huPPARα (Homo sapiens, UniProt Q07869).
T2 sequence (Q07869 200-468 limits assumed): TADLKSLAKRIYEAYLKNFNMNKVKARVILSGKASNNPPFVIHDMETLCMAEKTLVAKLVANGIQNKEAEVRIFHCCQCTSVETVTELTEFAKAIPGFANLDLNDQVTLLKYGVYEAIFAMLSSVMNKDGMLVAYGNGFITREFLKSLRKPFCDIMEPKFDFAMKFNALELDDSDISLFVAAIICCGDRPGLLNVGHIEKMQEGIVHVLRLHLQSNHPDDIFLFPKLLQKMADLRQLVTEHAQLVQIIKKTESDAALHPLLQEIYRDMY
The description is as above.
Description: as §1

In test [3] the target is T3, huPPARγ (Homo sapiens, UniProt P37231).
T3 construct: expressed in transfected cells; host or cells: CV-1 cells
T3 sequence (P37231 1-505): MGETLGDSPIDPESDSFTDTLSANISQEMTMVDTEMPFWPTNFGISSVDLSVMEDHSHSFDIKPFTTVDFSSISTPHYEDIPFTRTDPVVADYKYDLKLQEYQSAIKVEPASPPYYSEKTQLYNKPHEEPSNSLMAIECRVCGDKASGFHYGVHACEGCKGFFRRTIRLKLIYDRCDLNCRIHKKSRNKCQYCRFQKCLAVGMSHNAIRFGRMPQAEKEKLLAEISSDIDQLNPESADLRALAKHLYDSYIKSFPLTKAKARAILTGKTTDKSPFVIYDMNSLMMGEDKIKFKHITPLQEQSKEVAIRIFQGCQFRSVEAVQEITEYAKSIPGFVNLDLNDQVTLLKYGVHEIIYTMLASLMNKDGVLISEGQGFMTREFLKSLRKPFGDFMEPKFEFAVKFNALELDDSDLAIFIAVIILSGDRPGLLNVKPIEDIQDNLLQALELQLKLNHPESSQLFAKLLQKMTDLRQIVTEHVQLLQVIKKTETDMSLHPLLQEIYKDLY
T3 sequence (P19793 1-462 partner): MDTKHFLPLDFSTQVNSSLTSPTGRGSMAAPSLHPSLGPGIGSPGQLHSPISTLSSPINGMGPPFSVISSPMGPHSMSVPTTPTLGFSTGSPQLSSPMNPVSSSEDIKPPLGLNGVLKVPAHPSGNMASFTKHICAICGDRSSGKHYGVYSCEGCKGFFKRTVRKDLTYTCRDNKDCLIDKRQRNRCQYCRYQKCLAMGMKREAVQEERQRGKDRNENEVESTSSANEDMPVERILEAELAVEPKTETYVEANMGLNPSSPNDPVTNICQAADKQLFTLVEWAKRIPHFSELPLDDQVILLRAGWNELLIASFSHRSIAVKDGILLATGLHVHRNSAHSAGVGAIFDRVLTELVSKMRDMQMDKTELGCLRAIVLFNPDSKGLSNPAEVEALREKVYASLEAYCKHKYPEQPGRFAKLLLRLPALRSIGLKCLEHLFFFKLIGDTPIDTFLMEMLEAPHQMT
Put plainly: Cotransfection assay in CV-1 cells, AOX PPRE luciferase reporter. The test is classed as cell-based.
Description: as §1

Test [4] deals with hu apoAI transgenic mice. Description: Evaluation of triglyceride and cholesterol level in HuapoAI transgenic mice. The settings on record: 100 mg/kg oral gavage daily for 7 days. It is filed as in vivo.

As for `CCc1ccc(OC(C)CCSc2ccc(OCC(=O)O)c(C)c2)c(C(=O)c2ccccc2)c1` (centres unmarked) [S/O], the concentration giving a half-maximal response (EC50) in test [1] was 0.023 µM; in test [2], 2.89 µM; in test [3] (Table 4, effect of X/Y, scaffold drawing 255), 0.262 µM. In addition, the Emax in test [1] (CV-1, read-out: Eff % δ) is 112%; in test [2] (CV-1, read-out: Eff % α) it was 39%; in test [3] (CV-1, Table 4, percent efficacy relative to reference agonist, read-out: Eff % γ), 63%.
As to `CC(C)OC(=O)C(C)(C)Oc1ccc(C(=O)c2ccc(Cl)cc2)cc1` [fenofibrate], the “high-density lipoprotein cholesterol (HDLc) peak area” value in test [4] (FPLC of pooled sera, vehicle 47 to 62 v-sec) is on record as 68-96 v-sec. For the same compound, in test [4] (FPLC of pooled sera, versus vehicle), the “mean percent increase of HDLc” value is 48%. This compound yielded an average triglycerides values in test [4] (serum, vehicle about 60 to 80 mg/dl) of 33 to 58 mg/dL. In test [4] (versus vehicle), the “mean elevation of total serum cholesterol” value is 41% and the “mean reduction of triglycerides” value is 37%.
